Measurements reported in patent EP4656178A1, “COSMETIC USE OF ATRACTYLODES LANCEA ROOT EXTRACT” (Provital, S.A., priority 2024, dated 2025).

What was measured:
Type in all cases: cell-based
[1] = test system: reconstructed human pigmented epidermis (RHPE); assay: Depigmentation test: melanin quantification by imaging; details: daily application day 9 to day 17, in comparison with Control, read-out: melanin reduction
Description: The depigmenting potential of the ALRE was assessed on reconstructed human pigmented epidermis (RHPE). Said cells were specifically generated for screening depigmenting agents or skin lightening products prior to human in vivo testing, as disclosed in Hall et al., Reconstructed human pigmented skin/epidermis models achieve epidermal pigmentation through melanocore transfer, Pigment Cell Melanoma Res., 2022, 35, 425-435. On day 9, the medium was replaced with a daily renewal, incorporating test compounds: the ALRE at concentrations of 0.2, 0.1, and 0.05 mg/ml, comparing its effect with 10 µM Retinol. In this assessment, […] DMSO was used as a negative control and 250 µM Kojic acid as a positive control. Images for melanin evaluation were captured on day 17 using Leica EZ4 W stereo microscope (Leica Microsystems, Wetzlar, Germany) and quantified as follows: all imaging processing steps were performed with the imaging software Fiji/lmageJ v 1.52n (Schindelin et al., Fiji - an Open Source platform for biological image analysis, Nat. Methods, 2012, 9(7), doi:10-1038). […] Statistical differences were determined by two-way ANOVA using R version 4.3.2 (R: A Language and Environment for Statistical Computing, n.d.). […]

[2] = molecular target: T1, human TRPV1 channel (Homo sapiens, UniProt Q8NER1); assay: TRPV1 irritation test: intracellular calcium influx (Fluo4-NW) in TRPV1-overexpressing HEK cells; details: 1-hour incubation, normalized to 1 µM capsaicin (100%) and assay buffer (0%)
T1 construct: expressed in transfected cells
T1 sequence (Q8NER1 whole entry): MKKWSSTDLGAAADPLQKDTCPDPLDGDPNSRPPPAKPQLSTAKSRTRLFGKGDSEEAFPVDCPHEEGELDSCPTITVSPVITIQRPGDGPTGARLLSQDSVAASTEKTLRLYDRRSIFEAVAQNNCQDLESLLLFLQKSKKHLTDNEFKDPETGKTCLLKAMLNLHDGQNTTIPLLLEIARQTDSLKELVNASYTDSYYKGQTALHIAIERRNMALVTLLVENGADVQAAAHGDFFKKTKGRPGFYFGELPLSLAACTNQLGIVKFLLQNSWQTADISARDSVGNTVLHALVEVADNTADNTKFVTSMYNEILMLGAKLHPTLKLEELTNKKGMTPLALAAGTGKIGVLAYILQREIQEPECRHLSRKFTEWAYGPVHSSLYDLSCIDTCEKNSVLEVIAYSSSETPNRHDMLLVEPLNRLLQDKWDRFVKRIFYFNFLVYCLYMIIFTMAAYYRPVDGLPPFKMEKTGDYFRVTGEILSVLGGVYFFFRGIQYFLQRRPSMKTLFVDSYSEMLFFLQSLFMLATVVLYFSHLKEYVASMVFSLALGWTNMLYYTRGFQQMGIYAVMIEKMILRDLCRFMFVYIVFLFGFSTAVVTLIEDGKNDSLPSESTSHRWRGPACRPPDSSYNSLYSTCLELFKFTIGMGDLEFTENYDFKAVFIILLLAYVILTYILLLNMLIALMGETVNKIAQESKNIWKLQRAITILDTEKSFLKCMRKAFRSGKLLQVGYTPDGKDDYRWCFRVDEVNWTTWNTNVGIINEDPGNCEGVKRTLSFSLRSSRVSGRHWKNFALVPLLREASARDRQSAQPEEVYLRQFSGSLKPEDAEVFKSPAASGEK
From the text: In this TRPV1 test, compositions comprising different amounts of the A. lancea root extract (ALRE) were compared with retinol and tested on Human Embryonic Kidney (HEK) cells stably expressing this TRPV1 channel.
Cytosolic calcium influx was monitored using Fluo4-NW (Thermo Fisher Scientific) mix dye following manufacturer's instructions.
Activation of the TRPV1 receptor causes a Ca^+2 influx, and a direct relationship between fluorescence and TRPV1 receptor response can be established.
Fluorescence signal (AFU) was measured after excitation at 485 nm and emission at 520 nm using ClarioStar Plus microplate reader from BMG LABTECH.
The effect of tested compounds on intracellular Ca^+2 influx was studied 48 hours after cell seeding. The medium of TRPV1-overexpressing HEK cells was replaced by 90 µL/well of Fluo4-NW dye solution in assay buffer containing probenecid. […]
After 1 hour incubation at 37 °C, the plate was kept for 15 minutes at room temperature inside the fluorescence plate reader. After that, the program started with a stop in cycle 3 to add test compounds and capsazepine, 0.2% Triton X-100 (maximal signal control for dye loading) and assay buffer (minimal signal) and the fluorescence signal was recorded for 7 additional cycles. […] The signal was recorded until cycle 20. […]

[3] = test system: Human Dermal Fibroblasts; details: 6 h, 10 µM retinol or 0.05 mg/ml ALRE
Description: To better understand the cellular pathways and processes that were modulated by the ALRE in human dermal fibroblasts, and its relevance with respect to retinol, a comprehensive and comparative assessment of gene expression by transcriptome analysis was conducted.
Three biological triplicates of Human Dermal Fibroblasts (HDF; ZenBio Inc., Research Triangle Park, NC, USA) were stimulated for 6 h with either 10 µM retinol or 0.05 mg/ml ALRE. RNA was extracted with the TRIzol® Plus RNA Purification Kit, including DNase I treatment step, according to manufacturer's instructions. RNA quality and quantity were inspected by spectrophotometric measurement using a NanoDrop™ One spectrophotometer (Thermo Fisher Scientific, Pittsburgh, PA, USA).
Messenger RNA was purified from total RNA using poly-T oligo-attached magnetic beads. After fragmentation, the first strand cDNA was synthesized using random hexamer primers, followed by the second strand cDNA synthesis using either dUTP for directional library or dTTP for non-directional library. For the non-directional library, it was ready after end repair, A-tailing, adapter ligation, size selection, amplification, and purification. For the directional library, it was ready after end repair, A-tailing, adapter ligation, size selection, USER enzyme digestion, amplification, and purification . The library was checked with Qubit and real-time PCR for quantification and bioanalyzer for size distribution detection. Quantified libraries were pooled and sequenced (Paired-end 150 bp) on Illumina platforms, according to effective library concentration and data amount.
Obtained data were studied by bioinformatic analysis as disclosed, for example, in Liao et al, featureCounts: an efficient general purpose program for assigning sequence reads to genomic features, Bioinformatics, 2014 ,30(7), 923-30, Mortazavi et al., Mapping and quantifying mammalian transcriptomes by RNA-Seq, Nature Methods, 2008, 5(7), 621-628, and Robinson et al., edgeR: a Bioconductor package for differential expression analysis of digital gene expression data, Bioinformatics, 2010, 26(1), 139-140.
Genes involved in the following categories were studied: • 2.1.- Retinoid binding, metabolizing genes and lipid transport • 2.2.- Extracellular matrix • 2.3.- Inflammatory pathway

[4] = vs non-treated human fibroblast

SMILES | inhibition at 250 µM ([1]; 250 µM kojic acid) [%] | intracellular calcium increase ([2]; retinol 50 µM) | intracellular calcium increase ([2]; retinol 100 µM) | MMP1 gene expression [3, 4] | MMP12 gene expression [3, 4] | TIMP1 gene expression [3, 4] | TIMP3 gene expression [3, 4] | gene expression associated with crucial ECM proteins ([3]; vs non-treated human fibroblast (100%)) | inhibition at 10 µM ([1]; 10 µM retinol) [%]
O=c1cc(CO)occ1O [kojic acid] | 58 |  |  |  |  |  |  |  | 
CC1=C(/C=C/C(C)=C/C=C/C(C)=C/CO)C(C)(C)CCC1 [retinol] |  | significant rise | significant rise | elevation | elevation | significantly upregulated | significantly upregulated | comparable modulation of gene expression | 76
